The source of these data is ChEMBL document CHEMBL2073810, “Mrp2 is essential for estradiol-17beta(beta-D-glucuronide)-induced cholestasis in rats” (Hepatology, 2000).

What all share (type): functional, cell membranes, Membrane vesicle
For data set [1], the target named is T1, Bile salt export pump (Rattus norvegicus, UniProt O70127).
T1 sequence (O70127 whole entry): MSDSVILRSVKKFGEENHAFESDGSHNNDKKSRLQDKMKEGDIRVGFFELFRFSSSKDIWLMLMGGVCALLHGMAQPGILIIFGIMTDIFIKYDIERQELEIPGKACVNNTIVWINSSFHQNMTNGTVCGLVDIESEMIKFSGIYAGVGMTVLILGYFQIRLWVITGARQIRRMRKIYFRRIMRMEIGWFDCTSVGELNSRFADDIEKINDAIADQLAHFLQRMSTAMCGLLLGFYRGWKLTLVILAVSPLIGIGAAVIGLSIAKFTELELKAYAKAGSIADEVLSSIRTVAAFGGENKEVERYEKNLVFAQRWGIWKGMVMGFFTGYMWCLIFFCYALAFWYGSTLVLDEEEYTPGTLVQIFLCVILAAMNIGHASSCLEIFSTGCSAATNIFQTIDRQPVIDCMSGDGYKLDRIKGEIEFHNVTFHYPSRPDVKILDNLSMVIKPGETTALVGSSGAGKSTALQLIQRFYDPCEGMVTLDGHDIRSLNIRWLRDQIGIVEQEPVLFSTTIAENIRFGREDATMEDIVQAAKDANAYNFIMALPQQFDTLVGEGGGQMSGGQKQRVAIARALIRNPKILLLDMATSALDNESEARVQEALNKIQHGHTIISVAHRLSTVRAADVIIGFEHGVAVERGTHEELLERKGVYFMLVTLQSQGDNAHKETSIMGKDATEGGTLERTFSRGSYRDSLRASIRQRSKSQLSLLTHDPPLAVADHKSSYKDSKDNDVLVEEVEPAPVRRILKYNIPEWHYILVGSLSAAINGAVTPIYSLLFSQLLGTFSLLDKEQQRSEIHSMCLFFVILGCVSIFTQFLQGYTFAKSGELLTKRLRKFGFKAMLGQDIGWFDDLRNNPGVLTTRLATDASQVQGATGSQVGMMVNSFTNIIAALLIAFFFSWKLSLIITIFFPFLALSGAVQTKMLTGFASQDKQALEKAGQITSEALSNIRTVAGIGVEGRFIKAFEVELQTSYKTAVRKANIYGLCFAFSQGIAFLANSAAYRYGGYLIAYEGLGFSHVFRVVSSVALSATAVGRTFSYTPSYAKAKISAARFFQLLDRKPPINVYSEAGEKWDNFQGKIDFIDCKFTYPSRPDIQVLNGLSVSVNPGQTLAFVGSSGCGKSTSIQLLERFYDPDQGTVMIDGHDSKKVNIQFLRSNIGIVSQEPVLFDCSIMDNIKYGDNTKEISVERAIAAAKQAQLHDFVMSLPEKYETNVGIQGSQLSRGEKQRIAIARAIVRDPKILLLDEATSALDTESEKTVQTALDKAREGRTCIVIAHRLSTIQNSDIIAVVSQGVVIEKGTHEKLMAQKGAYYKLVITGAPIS
Nature of the data set: TP_TRANSPORTER: inhibition of Taurocholate uptake (Taurochorate: 100 uM, TLC: 10 uM) in membrane vesicles from Bsep-expressing Sf9 cells. The conditions noted are these: sf9, 10 µM.

In data set [2] the target is T1, Bile salt export pump. Nature of the data set: TP_TRANSPORTER: inhibition of Taurocholate uptake (Taurochorate: 1uM, Ethinyl estradiol: 25 uM) in membrane vesicles from Bsep-expressing Sf9 cells. The note with it: sf9, 25 µM.
Data set [3] addresses T1, Bile salt export pump. Nature of the data set: TP_TRANSPORTER: inhibition of Taurocholate uptake (Taurochorate: 1 uM, E217betaG: 50 uM) in membrane vesicles from Bsep-expressing Sf9 cells. The note with it: sf9, 50 µM.

On to `C[C@H](CCC(=O)NCCS(=O)(=O)O)[C@H]1CC[C@H]2[C@@H]3CC[C@@H]4C[C@H](O)CC[C@]4(C)[C@H]3CC[C@]12C` [TAUROLITHOCHOLIC ACID], for which the Activity result on Bile salt export pump [1] was “inhibitor [+]”.

`C#C[C@]1(O)CC[C@H]2[C@@H]3CCc4cc(O)ccc4[C@H]3CC[C@@]21C` [ETHINYL ESTRADIOL]: the Activity entry on Bile salt export pump [2] was “is not an inhibitor [-]”.

`C[C@]12CC[C@@H]3c4ccc(O)cc4CC[C@H]3[C@@H]1CC[C@@H]2O[C@@H]1O[C@H](C(=O)O)[C@@H](O)[C@H](O)[C@H]1O` [ESTRADIOL 17B GLUCURONIDE]: on Bile salt export pump [3], the Activity entry is “is not an inhibitor [-]”.
